Data as given in the NIST ThermoML archive (doi:10.1016/j.jct.2008.06.009).

Assay: xn = mol fraction of the nth substance listed
Conditions: 450 K, Liquid, Bellows volumetry

N [ammonia] + O
mass density [kg/m3]
Conditions | x1 = 0.1048 | x1 = 0.2046 | x1 = 0.3807 | x1 = 0.5565 | x1 = 0.7008 | x1 = 0.801 | x1 = 0.9102 | x1 = 1
10000 kPa | 843.9 | 796.9 | 708.1 | 608.5 | – | – | – | –
20000 kPa | 850.4 | 804.3 | 718.8 | 625.9 | 534.7 | 458.5 | – | –
30000 kPa | 856.6 | 811 | 728.1 | 639.8 | 557.7 | 495.6 | 422 | 355.3
40000 kPa | 862.7 | 817.8 | 736.8 | 651.6 | 575.2 | 519.2 | 457.5 | 403.7
50000 kPa | 868.5 | 823.8 | 744.9 | 662.2 | 589.4 | 537.4 | 481.3 | 433.4
60000 kPa | 873.9 | 829.6 | 751.5 | 671.3 | 601.8 | 552.2 | 499.7 | 455.2
70000 kPa | 879.1 | 835.4 | 758.3 | 680.1 | 612.5 | 564.9 | 514.8 | 472.6
80000 kPa | 884.2 | 840.9 | 765.1 | 687.8 | 622.2 | 576 | 527.7 | 487.4
90000 kPa | 889.2 | 845.9 | 771.1 | 695.3 | 631.2 | 586.2 | 539.1 | 500.2
100000 kPa | 893.9 | 850.6 | 777.1 | 702.2 | 639.2 | 595.2 | 549.2 | 511.7
120000 kPa | 902.7 | 860.3 | 788.1 | 714.8 | 654 | 611.5 | 566.9 | 531.4
140000 kPa | 911.3 | 868.9 | 798.6 | 726.2 | 666.9 | 625.9 | 582.2 | 548.2
160000 kPa | 919.5 | 877.1 | 807.9 | 736.6 | 678.7 | 638.7 | 595.6 | 563.1
180000 kPa | 927 | 885.1 | 817.2 | 746.2 | 689.4 | 650.1 | 607.8 | 576.3
200000 kPa | 934.3 | 892.2 | 825.3 | – | – | – | – | –
